Data taken from patent US8552208B2, “Analogs of tetramic acid” (University of Tennesseee Research Foundation, priority 2007, dated 2013).
≈ marks a conversion by molar mass, not a printed value. Where “and” joins values, the source holds several entries; their conditions need not be identical. Identical values can stand only once. Like-named read-outs stand apart in the source and are kept apart here.

Columns and labels:
[1] = test system: Methicillin sensitive Staphylococcus aureus 8325 ATCC 35556; test: Antibacterial activity assay (MIC, broth dilution); assay type: cell-based; conditions: ATCC 35556 / MSSA, read-out: MIC, MSSA
[2] = test system: Streptococcus pneumoniae DAW30EC; test: Antibacterial activity assay (MIC, broth dilution); assay type: cell-based; conditions: read-out: MIC, SPn
[3] = test system: clinical isolates of MSSA (methicillin sensitive S. aureus); assay type: cell-based
[4] = test system: MSSA (ATCC 25293) biofilm; test: Calgary Biofilm Device anti-biofilm activity; assay type: cell-based; conditions: Staphylococcus aureus; for MBC: read-out: MBEC = Minimum Biofilm Eradication Concentration; for MIC: read-out: MBIC = Minimum Biofilm Inhibitory Concentration
Staphylococcus aureus = test: Selection of single-step resistant mutants; assay type: cell-based; conditions: from a population of 10^10 cells
[5] = test system: clinical isolates of MRSA (methicillin resistant S. aureus); assay type: cell-based
[6] = test system: Enterococcus faecalis ATCC 33186; test: Antibacterial activity assay (MIC, broth dilution); assay type: cell-based
[7] = test system: MRSA (ATCC 35391) biofilm; test: Calgary Biofilm Device anti-biofilm activity; assay type: cell-based, Staphylococcus aureus; conditions: Staphylococcus aureus, triplicate runs listed singly; for MIC: read-out: MBIC = Minimum Biofilm Inhibitory Concentration
[8] = test system: Propionibacterium acnes ATCC 6919; test: Antibacterial activity assay (MIC, broth dilution); assay type: cell-based; conditions: Cutibacterium acnes
[9] = test system: Bacillus anthracis Sterne 34F2; test: microbe, parasite or virus in culture; assay type: cell-based; conditions: STERNE34F2, read-out: MIC, BA
[10] = test system: Streptococcus pyogenes ATCC 700294; test: Antibacterial activity assay (MIC, broth dilution); assay type: cell-based
[11] = test system: Bacillus subtilis ATCC 23857; test: Antibacterial activity assay (MIC, broth dilution); assay type: cell-based
[12] = test system: Vero monkey kidney cell line (ATCC, CCL-81); test: Cytotoxicity assay (MTT); assay type: cell-based; conditions: IC50 divided by MIC against S. aureus 8325
Method: (§1) Cytotoxicity assays of drugs of Formula I of Example 3 and of Formula II of Example 5 were performed using the Vero monkey kidney cell line (ATCC, CCL-81). Vero cells were grown in tissue culture flasks in Dulbecco's Modified Eagle's Medium (ATCC) supplemented with 10% fetal bovine serum and maintained in a humidified incubator (37° C., 5% CO2). Cells were removed with a cell scraper, collected by centrifugation and then suspended in fresh medium at ˜10^6 cells/mL. The cell suspensions were dispensed into 96-well microtiter plates (100 μl/well) and incubated for 18 hours at 37° C. before being used for cytotoxicity assays. Test compounds were subsequently added at concentrations ranging from 400-0.024 μg/mL and 0.1% vol/vol of Triton-X 100, which causes 100% death of cells, was included as a control. After incubating cells and compounds for 72 hours in humid air (37° C., 5% CO2) the cytopathic effects of compounds were determined using the MTT Cell Proliferation Assay (ATCC, Cat No. 30-1010K). The MTT solution reagent (10 μl) was added to each well and plates incubated at 37° C. until sufficient purple color development occurred in cells (3 hours). After detergent cell lysis, the purple formazan product was measured at 570 nm in a Synergy HT Biotek microplate reader. IC50 data was obtained from dose response curves plotted from percentage activity versus log10 concentration using Graphpad prism 5.

Cytotoxicity assay (MTT) = assay type: cell-based, monkey; conditions: monkey, Vero monkey kidney cells (ATCC CCL-81); Vero cells, 72 hours, MTT; read-out: IC50 (Cytotoxicity): Concentration which reduces viability of Vero kidney cells by 50%
Method: as §1

[13] = test system: Mycobacterium tuberculosis H37 Rv; test: Antibacterial activity assay (MIC, broth dilution); assay type: cell-based; conditions: H37RV, 168 h, read-out: MIC, TB
[14] = test system: methicillin-sensitive S. aureus ATCC 29213; test: Superficial skin infection model in mice; assay type: in vivo, Balb/c mice; conditions: topical, twice daily for three days, bacteria in lesions on day 5, placebo 8.15 +/− 0.37
Method: Compounds of the invention were tested for the ability to treat skin infections utilizing an established animal model of skin infection. The superficial skin infection model used in this study was previously developed by Kugelberg et al, “Establishment of a Superficial Skin Infection Model in Mice using Staphylococcus aureus and Streptococcus pyogenes”, Antimicrob. Agents Chemother., 49(8):3435-3441 (2005).
Superficial infections in Balb/c mice (male) were caused by first removing hair from the backs of mice with an electric shaver, followed by dry shaving with a razor and tape stripping with Tensoplast® (BSN Medical Inc., Charlotte, N.C.) adhesive bandage to remove the epidermis, followed by infection with a 5 μl bacterial suspension containing about 10^7 bacterial cells of methicillin-sensitive S. aureus ATCC 29213, a strain from a previous isolate from a human wound infection and used in other murine infection studies. After 4 hours of infection, treatment was started by administering 45-50 mg of ointment containing (i) vehicle hydrophilic petrolatum (placebo) (ii) 2% w/w mupirocin ointment (Bactroban®, GlaxoSmithKline plc., United Kingdom) in vehicle or (iii) 2% tetramic acid analogue of the invention (13b) in vehicle, (iv) 10% tetramic acid analogue of the invention (13b) in vehicle, (v) 2% tetramic acid analogue of the invention (13l) in vehicle, or (vi) 10% tetramic acid analogue of the invention (13l) in vehicle. Treatment was continued for three days with drug application twice daily at 8 hour intervals. On day 5, mice were sacrificed and the numbers of bacteria in lesions were enumerated.
This conclusion stems from statistical analysis of the resulting means by one way ANOVA followed by Tukey's test at P<0.01 with Placebo as the control group. Therefore, the tetramic acid analogues of the invention have the potential to be used clinically for the treatment of skin infections, such as those caused by Staphylococcus aureus.

[15] = test system: S. epidermidis (RP62A) biofilm; test: Calgary Biofilm Device anti-biofilm activity; assay type: cell-based; conditions: Staphylococcus epidermidis, S. epidermidis biofilm, triplicate runs listed singly; for MBC: read-out: MBEC = Minimum Biofilm Eradication Concentration; for MIC: read-out: MBIC = Minimum Biofilm Inhibitory Concentration
[16] = test system: Methicillin Resistant Staphylococcus aureus ATCC 33591; test: Antibacterial activity assay (MIC, broth dilution); assay type: cell-based; conditions: ATCC 33591 / MRSA, read-out: MIC, MRSA
[17] = Methicillin sensitive Staphylococcus aureus 8325 ATCC 35556
[18] = Streptococcus pneumoniae DAW30EC
[19] = MSSA biofilm, triplicate runs listed singly
[20] = ATCC33186, Enterococcus faecalis ATCC 33186, read-out: MIC, EF
[21] = ATCC6919, Propionibacterium acnes ATCC 6919, read-out: MIC, PA
[22] = ATCC700294, Streptococcus pyogenes ATCC 700294, read-out: MIC, SP
[23] = ATCC23857, Bacillus subtilis ATCC 23857, read-out: MIC, BS
[24] = Mycobacterium tuberculosis H37 Rv, […]
[25] = MRSA biofilm, read-out: MBEC = Minimum Biofilm Eradication Concentration

| SMILES | MBC [4, 19] [µg/mL] | MIC [4, 19] [µg/mL] | Antibiotic MIC ([5]; isolate MRSA-1) [µg/mL] | Antibiotic MIC ([5]; isolate MRSA-2) [µg/mL] | Antibiotic MIC ([5]; isolate MRSA-3) [µg/mL] | Antibiotic MIC ([5]; isolate MRSA-4) [µg/mL] | Antibiotic MIC ([5]; isolate MRSA-5) [µg/mL] | Antibiotic MIC ([5]; isolate MRSA-6) [µg/mL] | Antibiotic MIC ([5]; isolate MRSA-7) [µg/mL] | Antibiotic MIC ([5]; isolate MRSA-8) [µg/mL] | Antibiotic MIC ([5]; isolate MRSA-9) [µg/mL] | Antibiotic MIC ([5]; isolate MRSA-10) [µg/mL] | MIC ([7]; MRSA biofilm) [µg/mL] | MIC [9] [µg/mL] | IC50/MIC = Selectivity (therapeutic) index [12] | IC50 at 72 h (Cytotoxicity assay (MTT)) [µg/mL] | Mean Bacterial Count (log10) +/− SD ([14]; 2% ointment) | MBC [15] [µg/mL] | MIC [15] [µg/mL] | MIC [16] [µg/mL] | also measured |
| --- | --- | --- | --- | --- | --- | --- | --- | --- | --- | --- | --- | --- | --- | --- | --- | --- | --- | --- | --- | --- | --- |
| CCCCCCCCCCN1C(=O)/C(=C(/C)O)C(=O)[C@@H]1CC(C)C [Compound 13b, (S,Z)-1-decyl-3-(1-hydroxyethylidene)-5-isobutylpyrrolidine-2,4-dione] | 100 (≈ 296 µM) | 0.8 (≈ 2.37 µM) | 0.8 | 0.8 | 0.8 | 0.8 | 0.8 | 1.6 | 0.8 | 0.4 | 0.8 | 0.8 | 0.8 (≈ 2.37 µM) | 0.8 (≈ 2.37 µM) | 36.8 | 14.7 | 8.08 +/− 0.28 log10 | 50 (≈ 148 µM) | 0.4 (≈ 1.19 µM) | 0.8 (≈ 2.37 µM) | MIC [1, 17]: 0.4 µg/mL (≈ 1.19 µM); MIC [2, 18]: 6.25 µg/mL (≈ 18.5 µM); Antibiotic MIC ([3]; isolate MSSA-11): 0.8 µg/mL; Antibiotic MIC ([3]; isolate MSSA-12): 0.4 µg/mL; Antibiotic MIC ([3]; isolate MSSA-13): 0.4 µg/mL; Antibiotic MIC ([3]; isolate MSSA-14): 0.4 µg/mL; Antibiotic MIC ([3]; isolate MSSA-15): 0.4 µg/mL; Antibiotic MIC ([3]; isolate MSSA-16): 0.4 µg/mL; Antibiotic MIC ([3]; isolate MSSA-17): 0.4 µg/mL; Antibiotic MIC ([3]; isolate MSSA-18): 0.4 µg/mL; Antibiotic MIC ([3]; isolate MSSA-19): 0.4 µg/mL; Antibiotic MIC ([3]; isolate MSSA-20): 0.8 µg/mL; single-step mutants resistant to the compound (Staphylococcus aureus): could not be obtained; MIC [6, 20]: 1.6 µg/mL (≈ 4.74 µM); MBC ([7]; read-out: MBEC = Minimum Biofilm Eradication Concentration, MRSA biofilm): 6.25 µg/mL (≈ 18.5 µM); MIC [8, 21]: 0.8 µg/mL (≈ 2.37 µM); MIC [10, 22]: 50 µg/mL (≈ 148 µM); MIC [11, 23]: 0.8 µg/mL (≈ 2.37 µM); MIC [13, 24]: 12.5 µg/mL (≈ 37 µM); Mean Bacterial Count (log10) +/− SD ([14]; 10% ointment): 6.47 +/− 0.58 log10 |
| C/C(O)=C1\C(=O)[C@H](CC(C)C)N(Cc2ccc(-c3ccccc3)cc2)C1=O [Compound 13k, (S,Z)-1-(biphenyl-4-ylmethyl)-3-(1-hydroxyethylidene)-5-isobutylpyrrolidine-2,4-dione] | 100 (≈ 275 µM) | 3.12 (≈ 8.58 µM) | 1.6 | 1.6 | 1.6 | 1.6 | 1.6 | 0.8 | 0.8 | 0.4 | 1.6 | 0.8 | 0.8 (≈ 2.2 µM) | 0.4 (≈ 1.1 µM) | >197 | 19.7 |  | 200 (≈ 550 µM) | 1.6 (≈ 4.4 µM) | 0.8 (≈ 2.2 µM) | MIC [1, 17]: < 0.1 µg/mL; MIC [2, 18]: 12.5 µg/mL (≈ 34.4 µM); Antibiotic MIC ([3]; isolate MSSA-11): 1.6 µg/mL; Antibiotic MIC ([3]; isolate MSSA-12): 0.8 µg/mL; Antibiotic MIC ([3]; isolate MSSA-13): 0.8 µg/mL; Antibiotic MIC ([3]; isolate MSSA-14): 0.8 µg/mL; Antibiotic MIC ([3]; isolate MSSA-15): 0.4 µg/mL; Antibiotic MIC ([3]; isolate MSSA-16): 0.8 µg/mL; Antibiotic MIC ([3]; isolate MSSA-17): 0.8 µg/mL; Antibiotic MIC ([3]; isolate MSSA-18): 0.8 µg/mL; Antibiotic MIC ([3]; isolate MSSA-19): 0.8 µg/mL; Antibiotic MIC ([3]; isolate MSSA-20): 0.8 µg/mL; MIC [6, 20]: 0.8 µg/mL (≈ 2.2 µM); MBC [7, 25]: 100 µg/mL (≈ 275 µM); MIC [8, 21]: 0.2 µg/mL (≈ 0.55 µM); MIC [10, 22]: 25 µg/mL (≈ 68.8 µM); MIC [11, 23]: 0.4 µg/mL (≈ 1.1 µM); MIC [13, 24]: 50 µg/mL (≈ 138 µM) |
| C/C(O)=C1\C(=O)[C@H](CC(C)C)N(CC2=CCC3CC2C3(C)C)C1=O (stereo partly drawn) [Compound 13l, (5S,Z)-1-((6,6-dimethylbicyclo[3.1.1]hept-2-en-2-yl)methyl)-3-(1-hydroxyethylidene)-5-isobutylpyrrolidine-2,4-dione] | > 400 |  | 3.12 | 3.12 | 3.12 | 3.12 | 3.12 | 3.12 | 3.12 | 0.4 | 3.12 | 3.12 | 1.6 (≈ 4.83 µM) | 0.8 (≈ 2.41 µM) | 22.1 | 35.4 | 7.67 +/− 0.21 log10 | > 400 | 1.6 (≈ 4.83 µM) | 1.6 (≈ 4.83 µM) | MIC ([1]; Staphylococcus aureus): 1.6 µg/mL (≈ 4.83 µM); MIC ([2]; Streptococcus pneumoniae, DAW30EC): 50 µg/mL (≈ 151 µM); Antibiotic MIC [3]: 3.2 µg/mL and 1.6 µg/mL; MIC [4]: 3.12 µg/mL (≈ 9.41 µM); MIC ([6]; Enterococcus faecalis, ATCC33186, read-out: MIC, EF): 1.6 µg/mL (≈ 4.83 µM); MBC [7, 25]: > 400 µg/mL; MIC ([8]; ATCC6919, read-out: MIC, PA): 0.8 µg/mL (≈ 2.41 µM); MIC ([10]; Streptococcus pyogenes, ATCC700294, read-out: MIC, SP): 25 µg/mL (≈ 75.4 µM); MIC ([11]; Bacillus subtilis, ATCC23857, read-out: MIC, BS): 1.6 µg/mL (≈ 4.83 µM); MIC ([13]; Mycobacterium tuberculosis): 100 µg/mL (≈ 302 µM); Mean Bacterial Count (log10) +/− SD ([14]; 10% ointment): 6.51 +/− 0.67 log10 |
| C/C(=C\C(=O)OCCCCCCCCC(=O)O)C[C@@H]1OC[C@H](C[C@@H]2O[C@H]2[C@@H](C)[C@H](C)O)[C@@H](O)[C@H]1O [Mupirocin, mupirocin, reference compound] | > 400 | < 0.2 |  |  |  |  |  |  |  |  |  |  | < 0.2 |  |  |  | 5.95 +/− 0.92 log10 | > 400 | < 0.2 |  | MBC [7, 25]: > 400 µg/mL |
